Measurements: the METLIN SMRT retention time set (Domingo-Almenara et al. 2019)

Test: gradient 5% acetonitrile 3 min, to 50% in 2 min, to 85% in 15 min, held 3 min, 100 µL/min
Settings: column: Zorbax Extend-C18 2.1 x 50 mm; eluents: water / acetonitrile, 0.1% formic acid
In short: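 Each retention time is based on an adduct peak selected computationally and verified by manual inspection. Measurements used HPLC–quadrupole time-of-flight mass spectrometry in positive and negative ionization mode on mixtures of ~100 pure standards. Chromatography ran on a Zorbax Extend-C18 column (2.1 × 50 mm, 1.8 μm) at 100 μL/min with water and acetonitrile, each containing 0.1% formic acid, and dead and dwell volumes of 40 μL and 900 μL.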

SMILES | RP-LC retention time [s]
COc1ccc(-c2c(C)noc2NC(C)=O)cc1S(=O)(=O)N1CCN(C(=O)c2ccco2)CC1 | 670
COc1ccc(Nc2c(C(=O)N3CCCCC3)cnc3nc(C)ccc23)cc1 | 605
Cc1cccc(OCc2nc(C)c(C(=O)Nc3nc(-c4ccc5c(c4)OCCCO5)cs3)s2)c1 | 1230
CCn1c(C(=O)NCc2ccc(F)cc2)cc2sccc21 | 1010
O=C(NCCc1ccc(Cl)cc1)c1nnc(-c2ccc(S(=O)(=O)N3CCCC3)cc2)o1 | 1010
Cc1ncc2c(n1)C[C@@H]1CC[C@H]2N1C(=O)c1ccccn1 | 603
CCOC(=O)c1nc(N(C)c2cccc(Cl)c2)c2ccccc2n1 | 982
Cc1cc(NC(=O)C(=O)NCCCn2ccnc2)ccc1Br | 659
CCC1Oc2ccc(S(=O)(=O)N3CCC(C(=O)Nc4ccc(C)cc4C)CC3)cc2NC1=O (centres undefined) | 868
CC1(C)COc2ccc(NC(=O)c3ccc(Br)o3)cc2NC1=O | 824
CCOc1ccc(-c2noc(CN3C(=O)COc4ccc(S(=O)(=O)CC)cc43)n2)cc1 | 944
CCOC(=O)c1nc(NCc2ccccc2OC)c2c(CC)noc2n1 | 943
O=C(NCCCN1CCOCC1)c1ccc(-c2c(-c3ccc(F)cc3)ncn2C2CCCC2)o1 | 590
Fc1cccc(F)c1-c1nc(-c2ccc3nncn3c2)no1 | 765
Cc1nnc(-c2nnc(NCC(C)C)c3ccccc23)o1 | 652
CC(C)c1noc(-c2ccn3c(CC(=O)N4CCCCC4)nnc3c2)n1 | 721
CC1CCN(C(=O)c2cc3c(s2)CCC(C(=O)N2CCN(C)CC2)C3)CC1 (centres undefined) | 575
O=C(NCCCn1cccn1)c1cccc2[nH]cc(CN3CCSCC3)c12 | 628
O=C(Cn1ccnc1-c1ccnc(N2CCCC2)c1)NC1CCCCC1 | 595
CN1C(=O)c2cc(C(=O)NCCc3ccccc3)nn2CC1(C)C(=O)NCc1ccccc1 (centres undefined) | 769
Clc1ccc(OCc2nc(-c3ccc4c(c3)ncn4CCN3CCCC3)no2)cc1 | 690
COc1ccc(OC)c(NC(=O)Cn2c(=O)n(-c3ccccc3)c3ncccc32)c1 | 841
O=C(NCCC1=CCCCC1)C1CCc2ncc(-c3ccsc3)n2C1 (centres undefined) | 601

SMILES | RP-LC retention time [s]
Cc1ccn2cc(C(=O)NCc3ccc(N4CCOCC4)cc3)nc2c1 | 591
Cc1cc(C)c(C)c(S(=O)(=O)N2CCC3(CCN(c4cccnc4)C3)C2)c1C (centres undefined) | 762
O=C(CSc1nnc(-c2ccccc2F)o1)NC1CCCCC1 | 782
CC1(C(=O)NCc2ccc(F)cc2)CCCN(C(=O)NC2COc3ccccc3C2)C1 (centres undefined) | 875
CCCCC(=O)Nc1ccc2nc(N3CCN(c4cccc(C)c4)CC3)cc(C(=O)O)c2c1 | 722
Cc1nc(C)c(-c2ccc(=O)n(CCNS(=O)(=O)c3ccc4c(c3)OCCO4)n2)s1 | 642
CC(=O)N1CCc2cc(N3CC(C(=O)Nc4ccc(Cl)cc4C)CC3=O)ccc21 (centres undefined) | 735
O=C(Nc1ccc(Br)cc1F)C1CCN(C(=O)c2cccn2-c2cccnc2)CC1 | 782
COc1ccccc1-c1nc(Cn2nnc(-c3nc(-c4ccccc4Cl)no3)c2C)c(C)o1 | 1120
CCOc1ccc(NS(=O)(=O)c2ccccc2-c2nc(-c3ccc(F)cc3)no2)cc1 | 1200
O=C(c1cccs1)N1CCN(Cc2ccc(=O)n(CC3CC3)c2)CC1 | 480
Cc1ccccc1-c1nc(C)c(C(=O)NC(C)C)s1 | 903
CCOCCCNC(=O)C1CCCN(c2ncc(-c3ccc(F)cc3)cn2)C1 (centres undefined) | 886
O=C(O)c1nnn(-c2ccc(C(F)(F)F)cc2)c1C(F)(F)F | 824
Cn1c(=O)c2ccn(CC(=O)N3CCN(c4ccccn4)CC3)c2n(C)c1=O | 546
COc1ccc(CNc2nccn(-c3ccc4c(c3)OCO4)c2=O)cc1OC | 724
CCN(CC)CCn1c(=O)c(Cc2ccc(OC)cc2)nc2ccccc21 | 720
CC(C)(C)c1ccc(S(=O)(=O)NCC(=O)Nc2ccc3c(c2)OCO3)cc1 | 846
CSc1ccc(CNC(=O)c2[nH]c3cc(C)sc3c2CN2CCOCC2)cc1 | 709
CC(C)NC(=O)N(C)CCc1noc(COc2ccc(Cl)cc2)n1 | 841
COC(=O)N1CCN(c2ccc(-c3noc(C(F)(F)F)n3)cn2)CC1 | 904
Cc1cc(C)cc(OCC(=O)Nc2nc(-c3ccccc3)cs2)c1 | 1210
CCN(CC)S(=O)(=O)c1ccc2c(c1)CC(C(=O)N1CCN(c3ccccc3)CC1)N2C(C)=O (centres undefined) | 879

SMILES | RP-LC retention time [s]
Cc1noc(-c2ccnc(-n3cnc(C(=O)NC4CCCCC4)c3)c2)n1 | 776
Cc1ccc(CS(=O)Cc2ccc(C(=O)NCCN(C)C)o2)cc1 (centres undefined) | 587
NC(=O)C1CCN(C(=O)CCn2cnc3cc(S(=O)(=O)N4CCCC4)ccc32)CC1 | 577
Cc1ccc(-c2csc(NC(=O)CCCOc3ccc(Cl)cc3Cl)n2)cc1 | 1290
Fc1ccccc1-c1noc(N2CCCCC2)n1 | 982
COc1ccc(NC(=O)Cc2nnc(-c3ccc4ncccc4c3)o2)cc1OC | 655
COc1ccc(Cl)cc1NC(=O)C(=O)NCC1(O)CCOCC1 | 706
O=C(NCc1ccncc1)c1csc(-c2ccc(N3CCCC3)nc2)n1 | 559
CC1CCCCN1S(=O)(=O)c1ccc2nc(N3CCN(c4ccccc4F)CC3)ccc2c1 (centres undefined) | 1180
Cc1ccccc1NC(=O)C(=O)Nc1ccccc1C | 1080
CCCCn1cc(S(=O)(=O)Nc2cccc(F)c2)c2cccnc21 | 936
COc1ccc(-c2nnc(-c3cc(S(=O)(=O)NCc4ccco4)ccc3Cl)o2)cc1 | 964
COc1ccc(-c2nc(-c3ccc4oc(-c5ccccc5)nc4c3)no2)cn1 | 1430
Cc1ccc2nc(CN3CCN(C(=O)NCCc4ccccc4)CC3)oc2c1 | 677
O=C(Cn1cccc1-c1nc(-c2ccc(Cl)cc2)cs1)N1CCOCC1 | 1040
Cc1ccnc(NC(=O)Cn2ccc3ccc(-c4nnc(C)o4)cc32)c1 | 674
O=C([C@@H]1C[C@H](F)CN1C(=O)c1cccc(F)c1)N1CCOCC1 | 614
O=C(NOCC(O)CO)c1cc(Br)c(F)c(F)c1Nc1ccc(I)cc1F (centres undefined) | 879
COc1ccc2c(c1)CCc1c-2n[nH]c1C(=O)O | 674
COc1ccc2c(n1)Sc1nc3ccccc3nc1N2 | 1040
COc1ccccc1Cc1noc(C2CN(C(=O)CCc3c(C)noc3C)C2)n1 | 738
CCC(=O)N1CCc2cc(CNS(=O)(=O)c3ccc(OC)cc3)ccc21 | 812
O=C(Nc1ccc(Br)cc1F)C1CCN(S(=O)(=O)Cc2ccccc2)CC1 | 1000

SMILES | RP-LC retention time [s]
CCNC(=O)Nc1ccc2c(c1)CN(C(=O)Nc1ccc3c(c1)OCCO3)CCO2 | 706
Cc1cc(C)cc(NC(=O)c2cc(C)n3nc(C)cc3n2)c1 | 1160
O=C(CN1C(=O)C(C(=O)N2CCCC2)Sc2ccccc21)NCc1ccccc1 (centres undefined) | 870
Cc1cc(N2CCN(S(=O)(=O)c3cc(F)ccc3F)CC2)nc(N2CCCC2)n1 | 717
COc1ccc(C(=O)NCC(=O)Nc2nc3ccccc3[nH]2)cc1 | 606
COc1ccc(CC(=O)N2C[C@@H]3C[C@H]2C[C@@H]3NC(=O)c2ccccc2)c(Cl)c1 | 738
Cc1ccc(Nc2c(-c3ccc(Cl)cc3)nc3ccc(C)cn23)cc1 | 836
COc1ccc(-c2nc3cnccn3c2Nc2ccc(C)cc2C)cc1OC | 871
CCC(C)NC(=O)c1ccc2c(ccn2C)c1 (centres undefined) | 779
COC(=O)c1ccc(CN2CCC(c3nnc(C(F)(F)F)o3)CC2)o1 | 560
CCOC(=O)CNC(=O)N1CCN(c2ccc(=O)n(-c3ccc(C)cc3)n2)CC1 | 683
Cc1ccc2c(c1)N(C(=O)Cn1cnc3c(sc4nc(-c5ccccc5)ccc43)c1=O)CCO2 | 1130
O=C(Nc1ccc(N2CCOCC2)cc1)C1CCCN(c2nccnc2Oc2ccccc2)C1 (centres undefined) | 852
CCc1cccc(NC(=O)N2CCc3cn(CCOC)c4cccc(c34)C2)c1 | 1030
CC(C)c1ccc(NC(=O)Cn2cnc3nc(N4CCC(C(=O)NC5CC5)CC4)sc3c2=O)cc1 | 748
CCc1cc(=O)n(CC(=O)Nc2ccc(C(F)(F)F)cc2)c(N2CCOCC2)n1 | 849
CCn1c(=O)n(CC(=O)NCCN2CCC(C)CC2)c(=O)c2cnc(-c3ccc(Cl)cc3)nc21 | 776
Cc1ccc(NC(=O)Cn2cccc2-c2nnc(C3CCC3)o2)cc1 | 926
C/C=C1/[C@H]2C=C(C)C[C@]1(N)c1ccc(=O)[nH]c1C2 | 589
O=C(NCc1cccnc1)C1=C2CCCN2c2ccc(F)cc2S1(=O)=O | 572
